# Data as given in PubChem BioAssay (NCI).
# “And” between values parts separate entries of the source, which are not always exact repeats. Identical values can stand only once.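 Step 1: Grow cells in 96-well plates. Step 2: Expose to compound for 48 hours at 5 concentrations. Step 3: Interpolate endpoints linearly; if unreached, use highest concentration. GI50 marks 50% less growth. TGI: concentration producing complete growth inhibition.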
# Assays:
# Test in all cases: NCI anticancer screen, dose series, 48 h
# [1] = tested on: PC-3 prostate
# [2] = tested on: SF-268 CNS
# [3] = tested on: SNB-75 CNS
# [4] = tested on: OVCAR-3 ovarian
# [5] = tested on: 786-0 renal
# [6] = tested on: SF-539 CNS
# [7] = tested on: A549 NSCLC
# [8] = tested on: HOP-92 NSCLC
# [9] = tested on: TK-10 renal
# [10] = tested on: UACC-62 melanoma
structure (smiles),measurement,setting,value
Cc1ccc([N+](=O)[O-])c2c(NCCCN(C)C)ccnc12,TGI,[1],> 100 µM
same,TGI,[2],> 100 µM
same,TGI,[3],> 100 µM
same,TGI,[4],> 93.1 µM
same,TGI,[5],> 100 µM
same,TGI,[6],> 77 µM
same,TGI,[7],> 100 µM
same,TGI,[8],> 100 µM
same,TGI,[9],> 100 µM
CC(=O)O[C@H]1C(=O)[C@@]2(C)[C@H]([C@H](OC(=O)c3ccccc3)[C@]3([O-])C[C@H](OC(=O)[C@H]([O-])[C@@H](NC(=O)c4ccccc4)c4ccccc4)C(C)=C1C3(C)C)[C@]1(OC(C)=O)CO[C@@H]1C[C@@H]2[O-].[Fe+3],GI50,[1],0.235 µM and 0.219 µM
same,TGI,[1],65 µM and > 100 µM
same,GI50,[2],0.104 µM and 0.165 µM
same,TGI,[2],45.3 µM and > 100 µM
same,GI50,[3],0.0222 µM and 0.023 µM
same,TGI,[3],0.274 µM and 0.505 µM
same,GI50,[4],0.0215 µM and 0.0434 µM
same,GI50,[5],0.261 µM and 2.24 µM
same,TGI,[5],49.1 µM and > 100 µM
same,GI50,[6],0.029 µM and 0.0519 µM
same,TGI,[6],0.549 µM and 0.486 µM
same,GI50,[10],0.238 µM and 0.0875 µM
same,TGI,[10],65 µM and 15.8 µM
same,GI50,[7],0.0335 µM and 0.0852 µM
same,TGI,[7],65 µM and > 100 µM
same,GI50,[8],> 65 µM and 10.5 µM
same,TGI,[8],> 65 µM and 35.7 µM
same,GI50,[9],0.591 µM and 0.658 µM
same,TGI,[9],65 µM and > 100 µM
C=CC(=O)Nc1cccc(Nc2nc(Nc3ccc(OCCOC)cc3)ncc2F)c1,GI50,[1],2.92 µM
same,TGI,[1],26.9 µM
same,GI50,[2],2.06 µM
same,TGI,[2],16 µM
same,GI50,[3],0.341 µM
same,TGI,[3],2.44 µM
same,GI50,[4],2.47 µM
same,TGI,[4],16.1 µM
same,GI50,[5],0.887 µM
same,TGI,[5],13.1 µM
same,GI50,[6],1.47 µM
same,TGI,[6],4.95 µM
same,GI50,[10],1.93 µM
same,TGI,[10],12.9 µM
same,GI50,[7],2.77 µM
same,TGI,[7],13.1 µM
same,GI50,[8],0.928 µM
same,TGI,[8],5.34 µM
same,GI50,[9],0.99 µM
same,TGI,[9],3.86 µM
Oc1ccc(Cc2ccccc2)c2cccnc12,GI50,[1],2.7 µM
same,TGI,[1],67.4 µM
same,GI50,[2],2.18 µM
same,TGI,[2],86.8 µM
same,GI50,[3],14.7 µM
same,TGI,[3],> 100 µM
same,GI50,[4],6.7 µM
same,TGI,[4],37.6 µM
same,GI50,[5],2.04 µM
same,TGI,[5],6.57 µM
same,GI50,[6],1.66 µM
same,TGI,[6],19.2 µM
same,GI50,[10],2.32 µM
same,TGI,[10],6.04 µM
same,GI50,[7],4.21 µM
same,TGI,[7],71.9 µM
same,GI50,[8],1.02 µM
same,TGI,[8],39.6 µM
same,GI50,[9],2.81 µM
same,TGI,[9],> 100 µM
CCCSc1cc(Cl)nc(N)n1,GI50,[1],> 100 µM
same,TGI,[1],> 100 µM
same,GI50,[2],> 100 µM
same,TGI,[2],> 100 µM
same,GI50,[3],90.1 µM
same,TGI,[3],> 100 µM
same,GI50,[4],> 100 µM
same,TGI,[4],> 100 µM
same,GI50,[5],> 100 µM
same,TGI,[5],> 100 µM
same,GI50,[6],> 100 µM
same,TGI,[6],> 100 µM
same,GI50,[10],> 100 µM
same,TGI,[10],> 100 µM
same,GI50,[7],> 100 µM
same,TGI,[7],> 100 µM
same,GI50,[8],14.8 µM
same,TGI,[8],> 100 µM
same,GI50,[9],> 100 µM
same,TGI,[9],> 100 µM
N#Cc1c(-c2ccccc2)nc2c(c(-c3ccccc3)nn2-c2ccccc2)c1-c1ccc(O)cc1,GI50,[1],1.82 µM
same,TGI,[1],3.78 µM
same,GI50,[2],2.83 µM
same,TGI,[2],9.14 µM
same,GI50,[3],2.03 µM
same,TGI,[3],7.28 µM
same,GI50,[4],2 µM
same,TGI,[4],4.45 µM
same,GI50,[5],2.16 µM
same,TGI,[5],5.35 µM
same,GI50,[6],1.25 µM
same,TGI,[6],2.76 µM
same,GI50,[10],1.7 µM
same,TGI,[10],3.18 µM
same,GI50,[7],2.57 µM
same,TGI,[7],6.87 µM
same,GI50,[8],2.06 µM
same,TGI,[8],4.21 µM
same,GI50,[9],2.89 µM
same,TGI,[9],8.19 µM
CN1CCN(Cc2ccc(NC(=O)c3ccc(C(C)(C)C)c(C#Cc4cnc5cccnn45)c3)cc2C(F)(F)F)CC1,GI50,[1],1.89 µM
same,TGI,[1],4.12 µM
same,GI50,[2],1.87 µM
same,TGI,[2],3.82 µM
same,GI50,[3],1.59 µM
same,TGI,[3],3.09 µM
same,GI50,[4],3.55 µM
same,TGI,[4],12.2 µM
same,GI50,[5],1.67 µM
same,TGI,[5],3.24 µM
same,GI50,[6],2.03 µM
same,TGI,[6],4.14 µM
same,GI50,[10],2.08 µM
same,TGI,[10],4.37 µM
same,GI50,[7],1.91 µM
same,TGI,[7],3.57 µM
same,GI50,[8],12.1 µM
same,TGI,[8],27.1 µM
same,GI50,[9],2.62 µM
same,TGI,[9],7.02 µM
CCn1c(-c2nonc2N)nc2ccc(F)cc21,GI50,[1],> 25 µM
same,TGI,[1],> 25 µM
same,GI50,[2],> 25 µM
same,TGI,[2],> 25 µM
same,GI50,[3],> 25 µM
same,TGI,[3],> 25 µM
same,GI50,[4],> 25 µM
same,TGI,[4],> 25 µM
same,GI50,[5],> 25 µM
same,TGI,[5],> 25 µM
same,GI50,[6],> 25 µM
same,TGI,[6],> 25 µM
same,GI50,[10],> 25 µM
same,TGI,[10],> 25 µM
same,GI50,[7],> 25 µM
same,TGI,[7],> 25 µM
same,GI50,[8],7.36 µM
same,TGI,[8],> 25 µM
same,GI50,[9],> 25 µM
same,TGI,[9],> 25 µM
CC(=O)[CH-]C(C)=O.CC(=O)[CH-]C(C)=O.N=CC=N.[Sn+2],GI50,[1],5.03 µM
same,TGI,[1],17.6 µM
same,GI50,[2],3.28 µM
same,TGI,[2],10.5 µM
same,GI50,[3],3.7 µM
same,TGI,[3],13.7 µM
same,GI50,[4],2.86 µM
same,TGI,[4],9.13 µM
same,GI50,[5],1.76 µM
same,TGI,[5],3.23 µM
same,GI50,[6],3.23 µM
same,TGI,[6],11.8 µM
same,GI50,[10],2.17 µM
same,TGI,[10],5.85 µM
same,GI50,[7],9.6 µM
same,TGI,[7],22.4 µM
same,GI50,[8],1.74 µM
same,TGI,[8],3.79 µM
same,GI50,[9],4.48 µM
same,TGI,[9],10.7 µM
CCCCCCNc1nc(NCCCCCC)c2[nH]c(NCCCCCC)nc2n1,GI50,[1],9.14 µM
same,TGI,[1],28.9 µM
same,GI50,[2],4.36 µM
same,TGI,[2],15.5 µM
same,GI50,[3],4.31 µM
same,TGI,[3],20.7 µM
same,GI50,[4],2.1 µM
same,TGI,[4],9.44 µM
same,GI50,[5],14.5 µM
same,TGI,[5],27.6 µM
same,GI50,[6],7.39 µM
same,TGI,[6],21.1 µM
same,GI50,[10],13.4 µM
same,TGI,[10],28.6 µM
same,GI50,[7],1.58 µM
same,TGI,[7],14.8 µM
same,GI50,[8],5.43 µM
same,TGI,[8],16.9 µM
same,GI50,[9],21.3 µM
same,TGI,[9],46.6 µM
Cn1c(N)nc2c(nc(OCc3ccccc3)n2C2OC(CO)C(O)C2O)c1=O (centres undefined),TGI,[1],> 100 µM
same,TGI,[2],> 100 µM
same,TGI,[3],> 100 µM
same,TGI,[4],> 100 µM
same,TGI,[5],> 100 µM
same,TGI,[10],> 100 µM
same,TGI,[7],> 100 µM
same,TGI,[8],> 100 µM
same,TGI,[9],> 100 µM
COc1ccccc1C(=O)c1ccc2ccccc2c1,TGI,[1],> 100 µM
same,TGI,[2],> 100 µM
same,TGI,[3],> 100 µM
same,TGI,[4],39.6 µM
same,TGI,[5],> 100 µM
same,TGI,[6],25.8 µM
same,TGI,[10],> 100 µM
same,TGI,[7],> 100 µM
same,TGI,[8],66.5 µM
same,TGI,[9],63.6 µM
Cc1sc(C)c(-c2ccc(CO)o2)c1-c1ccc(CO)o1,GI50,[1],32.7 µM
same,TGI,[1],> 100 µM
same,GI50,[2],91.1 µM
same,TGI,[2],> 100 µM
same,GI50,[3],25.4 µM
same,TGI,[3],> 100 µM
same,GI50,[4],0.183 µM
same,TGI,[4],0.706 µM
same,TGI,[5],> 100 µM
same,GI50,[6],> 100 µM
same,TGI,[6],> 100 µM
same,GI50,[7],2.88 µM
same,TGI,[7],> 100 µM
same,GI50,[8],7.01 µM
same,TGI,[8],> 100 µM
same,GI50,[9],0.116 µM
same,TGI,[9],0.426 µM
